Laboratory results reported in the supplement of paper PMC11919725.

Key:
[1] = system: Jurkat; assay: cytotoxicity relative to DMSO, 18 h (ratio); higher = less cell death (drugs called cytotoxic fall below 1)
In short: (§1)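 Jurkat or primary CD4+/CD8+ T cells (naive, or activated 48 h with CD3/CD28 Dynabeads) were treated 18 h with compound at 1 nM–10 µM (log10 steps) at 37 °C, 5% CO2. Then 100 µl of suspension went into 96-well plates with IncuCyte Cytotox Dye (250 nM final). Cytotoxicity came from IncuCyte fluorescence imaging (×10, five images per well, hourly over 3 h). Signals were corrected for confluency, then normalised to mean DMSO controls.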

[2] = system: Primary T cells CD4+ activated; assay: as above
In short: as §1

[3] = system: Primary T cells CD8+ naive; assay: as above
In short: as §1

[4] = system: Primary T cells CD8+ activated; assay: as above
In short: as §1

[5] = system: Primary T cells CD4+ naive; assay: as above
In short: as §1

[6] = system: Jurkat; assay: metabolic activity relative to DMSO, 18 h (ratio); higher = more viable
In short: (§2)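 Metabolic activity values are normalised to the average of vehicle control wells. They come from Jurkat or primary CD4+/CD8+ T cells (naive, or activated 48 h with CD3/CD28 Dynabeads) treated for 18 h at 37 °C, 5% CO2 with compound over 1 nM–10 µM in log10 steps. Then 100 µl of each suspension was mixed in 96-well plates with alamarBlue (10% v/v final), and fluorescence at 544 nm excitation and 584 nm emission was recorded on a FluoStar Omega 3.5 h later.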

[7] = system: Primary T cells CD4+ activated; assay: as above
In short: as §2

[8] = system: Primary T cells CD8+ naive; assay: as above
In short: as §2

[9] = system: Primary T cells CD8+ activated; assay: as above
In short: as §2

[10] = system: Primary T cells CD4+ naive; assay: as above
In short: as §2

[11] = system: Jurkat; assay: confluency relative to DMSO, 18 h (ratio); higher = more viable
In short: (§3)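 Jurkat cells or primary CD4+/CD8+ T cells, either naive or activated for 48 h with CD3/CD28 Dynabeads, were exposed to compound from 1 nM to 10 µM in log10 steps for 18 h at 37 °C and 5% CO2. Afterwards, 100 µl of each suspension was moved into 96-well plates containing IncuCyte Cytotox Dye and alamarBlue. Phase-contrast images were taken at ×10, five per well, every hour for 3 h. Confluency was derived from these images with the IncuCyte Basic Analyzer, and values are expressed relative to the mean of the control wells.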

[12] = system: Primary T cells CD4+ activated; assay: as above
In short: as §3

[13] = system: Primary T cells CD8+ naive; assay: as above
In short: as §3

[14] = system: Primary T cells CD8+ activated; assay: as above
In short: as §3

[15] = system: Primary T cells CD4+ naive; assay: as above
In short: as §3

## Cc1[nH]c2ccccc2c1CCNCc1ccc(C=CC(=O)NO)cc1 [Panobinostat]
[1]; 1 nM
  cytotoxicity: 0.94
[1]; 10 nM
  cytotoxicity: 0.843
[1]; 100 nM
  cytotoxicity: 0.933
[1]; 1000 nM
  cytotoxicity: 0.873
[1]; 10000 nM
  cytotoxicity: 0.921
[2]; 1 nM
  cytotoxicity: 1.04
[2]; 10 nM
  cytotoxicity: 1.08
[2]; 100 nM
  cytotoxicity: 1.32
[2]; 1000 nM
  cytotoxicity: 1.5
[2]; 10000 nM
  cytotoxicity: 0.92
[3]; 1 nM
  cytotoxicity: 1.34
[3]; 10 nM
  cytotoxicity: 0.493
[3]; 100 nM
  cytotoxicity: 1.16
[3]; 1000 nM
  cytotoxicity: 0.814
[3]; 10000 nM
  cytotoxicity: 1.06
[4]; 1 nM
  cytotoxicity: 0.993
[4]; 10 nM
  cytotoxicity: 0.888
[4]; 100 nM
  cytotoxicity: 1.11
[4]; 1000 nM
  cytotoxicity: 1.34
[4]; 10000 nM
  cytotoxicity: 1.3
[5]; 1 nM
  cytotoxicity: 1.29
[5]; 10 nM
  cytotoxicity: 0.906
[5]; 100 nM
  cytotoxicity: 1.33
[5]; 1000 nM
  cytotoxicity: 1.19
[5]; 10000 nM
  cytotoxicity: 0.853
[6]; 1 nM
  metabolic activity: 1.05
[6]; 10 nM
  metabolic activity: 0.782
[6]; 100 nM
  metabolic activity: 0.681
[6]; 1000 nM
  metabolic activity: 0.72
[6]; 10000 nM
  metabolic activity: 0.849
[7]; 1 nM
  metabolic activity: 0.998
[7]; 10 nM
  metabolic activity: 0.826
[7]; 100 nM
  metabolic activity: 0.627
[7]; 1000 nM
  metabolic activity: 0.616
[7]; 10000 nM
  metabolic activity: 0.875
[8]; 1 nM
  metabolic activity: 0.913
[8]; 10 nM
  metabolic activity: 0.881
[8]; 100 nM
  metabolic activity: 0.836
[8]; 1000 nM
  metabolic activity: 0.779
[8]; 10000 nM
  metabolic activity: 0.766
[9]; 1 nM
  metabolic activity: 1
[9]; 10 nM
  metabolic activity: 0.909
[9]; 100 nM
  metabolic activity: 0.738
[9]; 1000 nM
  metabolic activity: 0.725
[9]; 10000 nM
  metabolic activity: 0.778
[10]; 1 nM
  metabolic activity: 0.856
[10]; 10 nM
  metabolic activity: 0.957
[10]; 100 nM
  metabolic activity: 0.728
[10]; 1000 nM
  metabolic activity: 0.726
[10]; 10000 nM
  metabolic activity: 0.813
[11]; 1 nM
  confluency: 0.912
[11]; 10 nM
  confluency: 0.937
[11]; 100 nM
  confluency: 1.01
[11]; 1000 nM
  confluency: 0.992
[11]; 10000 nM
  confluency: 0.978
[12]; 1 nM
  confluency: 1.04
[12]; 10 nM
  confluency: 1.01
[12]; 100 nM
  confluency: 1.17
[12]; 1000 nM
  confluency: 1.35
[12]; 10000 nM
  confluency: 1.02
[13]; 1 nM
  confluency: 1.19
[13]; 10 nM
  confluency: 0.473
[13]; 100 nM
  confluency: 1.08
[13]; 1000 nM
  confluency: 0.774
[13]; 10000 nM
  confluency: 0.932
[14]; 1 nM
  confluency: 0.974
[14]; 10 nM
  confluency: 0.886
[14]; 100 nM
  confluency: 1.04
[14]; 1000 nM
  confluency: 1.26
[14]; 10000 nM
  confluency: 1.21
[15]; 1 nM
  confluency: 1.2
[15]; 10 nM
  confluency: 1.02
[15]; 100 nM
  confluency: 1.29
[15]; 1000 nM
  confluency: 1.13
[15]; 10000 nM
  confluency: 0.869
